Counter-ions that a name gives are not always drawn. Like-named read-outs stand apart in the source and are kept apart here.
Tests used:
[1] = tested on: thyroid hormone receptor (endogenous TRα and TRβ); experiment: GH3-TRE-Ag primary qHTS, luciferase reporter, agonist mode (TOX21_TR_LUC_GH3_Agonist, aeid 803); format: cell-based, rat
in vitro = settings: rat, gh3-tre-luc cells, AC50 (uM) modified / 1000
GH3-TRE-Luc cell line = settings: read-out: AC50 (uM) modified / 1000, viability, 1 nM T3 present, 24 h
[2] = aeid 803 TOX21_TR_LUC_GH3_Agonist, tcpl output

SMILES: N[C@@H](Cc1cc(I)c(O)c(I)c1)C(=O)O [3,5-diiodo-L-tyrosine]
- activity in GH3-TRE agonist assay [1]: completely inactive
- max_mean [1]: 0.9106 percent_activity
- max_med ([1]; aeid 803, at max_med_conc (log) -0.39794, coff 20): 0.5533 percent_activity
- hitc ([1]; aeid 803 TOX21_TR_LUC_GH3_Agonist, modl cnst): 0
- resp_max [1, 2]: 3.287 percent_activity
- resp_min [1, 2]: -1.703 percent_activity
- CC50 at 24 h (in vitro): > 50 µM

SMILES: O=C(O[C@@H]1Cc2c(O)cc(O)cc2O[C@@H]1c1cc(O)c(O)c(O)c1)c1cc(O)c(O)c(O)c1 [(-)-Epigallocatechin gallate]
- CC50 (GH3-TRE-Luc cell line; Tox21_110001=Tox21_303457): 50.7 µM
- CC50 at 24 h (in vitro): 48.4 µM

SMILES: O=C1c2ccccc2C(=O)N1SC(Cl)(Cl)Cl [Folpet]
- CC50 (GH3-TRE-Luc cell line; Tox21_110001=Tox21_301077): 2.3 µM
- CC50 at 24 h (in vitro): 4.47 µM

SMILES: O=c1c(O)c(-c2ccc(O)cc2)oc2cc(O)cc(O)c12 [Kaempferol]
- CC50 (GH3-TRE-Luc cell line; Tox21_110001=Tox21_303363): 50 µM
- CC50 at 24 h (in vitro): 66.6 µM

SMILES: Cc1[nH]cnc1C[C@H]1CCc2c(C)c3ccccc3n2C1=O [Fabesetron]
- CC50 (GH3-TRE-Luc cell line; Tox21_110001=Tox21_113200): 23.5 µM
- CC50 at 24 h (in vitro): 33.3 µM

SMILES: O=C1NCCN1CCN1CCC(c2cn(-c3ccc(F)cc3)c3ccc(Cl)cc23)CC1 [Sertindole]
- CC50 (GH3-TRE-Luc cell line; Tox21_110001=Tox21_113421): 6.74 µM
- CC50 at 24 h (in vitro): 5.55 µM

SMILES: Oc1ccccc1O [Catechol]
- CC50 (GH3-TRE-Luc cell line; Tox21_110001=Tox21_300153): 32.6 µM
- CC50 at 24 h (in vitro): 33.7 µM

SMILES: CC[C@H]1OC(=O)[C@H](C)[C@@H](O[C@H]2C[C@@](C)(OC)[C@@H](O)[C@H](C)O2)[C@H](C)[C@@H](O[C@@H]2O[C@H](C)C[C@H](N(C)C)[C@H]2O)[C@](C)(O)C[C@@H](C)CN(C)[C@H](C)[C@@H](O)[C@]1(C)O [Azithromycin]
- CC50 (GH3-TRE-Luc cell line; Tox21_110001=Tox21_111008): 35.5 µM
- CC50 at 24 h (in vitro): 28.3 µM

SMILES: C=CC(=O)OCCCCCCOC(=O)C=C [1,6-Hexanediol diacrylate]
- CC50 (GH3-TRE-Luc cell line; Tox21_110001=Tox21_303168): 46.1 µM
- CC50 at 24 h (in vitro): 57.6 µM

SMILES: CC(C)(C)CC(C)(C)c1ccc(O)c(-n2nc3ccccc3n2)c1 [Octrizole]
- CC50 (GH3-TRE-Luc cell line; Tox21_110001=Tox21_112086): 21.6 µM
- CC50 (GH3-TRE-Luc cell line; Tox21_110001=Tox21_300498): 32.7 µM
- CC50 at 24 h (in vitro): 35.4 µM

SMILES: NC(CO)(CO)CO [tromethamine]
- activity in GH3-TRE agonist assay [1]: completely inactive
- CC50 at 24 h (in vitro): > 90 µM

SMILES: CC(=O)OC/C=C(C)/C=C/C=C(C)/C=C/C1=C(C)CCCC1(C)C [Retinol acetate]
- CC50 (GH3-TRE-Luc cell line; Tox21_110001=Tox21_201423): 65.7 µM
- CC50 at 24 h (in vitro): > 50 µM

SMILES: CC(C)(C)c1ccc(O)c(C(C)(C)C)c1 [2,4-Di-tert-butylphenol]
- CC50 (GH3-TRE-Luc cell line; Tox21_110001=Tox21_300114): 29.7 µM
- CC50 at 24 h (in vitro): 47.6 µM

SMILES: Oc1c(Cl)c(Cl)c(Cl)c(Cl)c1Cl [Pentachlorophenol]
- CC50 (GH3-TRE-Luc cell line; Tox21_110001=Tox21_300023): 29.7 µM
- CC50 at 24 h (in vitro): 34.5 µM

SMILES: O=c1n(CC2CO2)c(=O)n(CC2CO2)c(=O)n1CC1CO1 (stereo not drawn) [Triglycidyl isocyanurate]
- CC50 (GH3-TRE-Luc cell line; Tox21_110001=Tox21_111097): 26.2 µM
- CC50 (GH3-TRE-Luc cell line; Tox21_110001=Tox21_300119): 33.9 µM
- CC50 at 24 h (in vitro): 27.2 µM

SMILES: CCCCCCCCOC(=O)c1ccc(O)cc1 [Octylparaben]
- CC50 (GH3-TRE-Luc cell line; Tox21_110001=Tox21_303430): 46 µM
- CC50 at 24 h (in vitro): 60.4 µM

SMILES: c1cc(N(CC2CO2)CC2CO2)ccc1OCC1CO1 (stereo not drawn) [4-(Diglycidylamino)phenyl glycidyl ether]
- CC50 (GH3-TRE-Luc cell line; Tox21_110001=Tox21_302646): 25.4 µM
- CC50 at 24 h (in vitro): 30.4 µM

SMILES: CCCCCCCCCCCCCC[P+](CCCC)(CCCC)CCCC [Tributyltetradecylphosphonium chloride]
- CC50 (GH3-TRE-Luc cell line; Tox21_110001=Tox21_303556): 3.3 µM
- CC50 at 24 h (in vitro): 2.96 µM

SMILES: CC(C)(C)c1ccc(O)c(O)c1 [4-tert-Butylcatechol]
- CC50 (GH3-TRE-Luc cell line; Tox21_110001=Tox21_400003): 49.3 µM
- CC50 at 24 h (in vitro): 43 µM

SMILES: Oc1ccc(Cl)cc1Sc1cc(Cl)ccc1O [Fenticlor]
- CC50 (GH3-TRE-Luc cell line; Tox21_110001=Tox21_110031): 11.6 µM
- CC50 at 24 h (in vitro): 8.49 µM

SMILES: N#Cc1nn(-c2c(Cl)cc(C(F)(F)F)cc2Cl)c(N)c1[S+]([O-])C(F)(F)F (stereo not drawn) [Fipronil]
- CC50 (GH3-TRE-Luc cell line; Tox21_110001=Tox21_111300): 36.1 µM
- CC50 at 24 h (in vitro): 49.6 µM

SMILES: CC(C)N(C(=O)CCl)c1ccccc1 [Propachlor]
- CC50 (GH3-TRE-Luc cell line; Tox21_110001=Tox21_303036): 54.1 µM
- CC50 at 24 h (in vitro): 48.7 µM

SMILES: CN(C)CCOc1ccc(/C(=C(/CCCl)c2ccccc2)c2ccccc2)cc1 [Toremifene citrate]
- CC50 (GH3-TRE-Luc cell line; Tox21_110001=Tox21_111877): 11.4 µM
- CC50 at 24 h (in vitro): 8.87 µM

SMILES: O=c1cc(-c2ccc(O)cc2)oc2cc(O)cc(O)c12 [Apigenin]
- CC50 (GH3-TRE-Luc cell line; Tox21_110001=Tox21_302884): 77.9 µM
- CC50 at 24 h (in vitro): 42.3 µM

SMILES: CN(C)c1ccc(C(=N)c2ccc(N(C)C)cc2)cc1 [Auramine hydrochloride]
- CC50 (GH3-TRE-Luc cell line; Tox21_110001=Tox21_303002): 57.6 µM
- CC50 at 24 h (in vitro): 63.2 µM

SMILES: CC(C)(C)CC(C)(C)c1ccc(O)cc1 [4-(1,1,3,3-Tetramethylbutyl)phenol]
- CC50 (GH3-TRE-Luc cell line; Tox21_110001=Tox21_112084): 22.4 µM
- CC50 at 24 h (in vitro): 35.1 µM

SMILES: C=CCOC(Cn1ccnc1)c1ccc(Cl)cc1Cl (stereo not drawn) [Imazalil]
- CC50 (GH3-TRE-Luc cell line; Tox21_110001=Tox21_300720): 79.9 µM
- CC50 at 24 h (in vitro): 53.5 µM

SMILES: Nc1cc([N+](=O)[O-])ccc1O [2-Amino-4-nitrophenol]
- CC50 (GH3-TRE-Luc cell line; Tox21_110001=Tox21_302788): 48.2 µM
- CC50 at 24 h (in vitro): 62.3 µM

SMILES: CC1=C(/C=C/C(C)=C/C=C/C(C)=C/CO)C(C)(C)CCC1 [Retinol]
- CC50 (GH3-TRE-Luc cell line; Tox21_110001=Tox21_300287): 85.7 µM
- CC50 at 24 h (in vitro): 63.5 µM

SMILES: Oc1ccc2ccccc2c1N=Nc1ccccc1 [C.I. Solvent Yellow 14]
- CC50 (GH3-TRE-Luc cell line; Tox21_110001=Tox21_300297): 62.3 µM
- CC50 at 24 h (in vitro): > 90 µM

SMILES: CCCCCCCCCCCCc1ccccc1S(=O)(=O)O [Sodium dodecylbenzenesulfonate]
- CC50 (GH3-TRE-Luc cell line; Tox21_110001=Tox21_300506): 77.4 µM
- CC50 at 24 h (in vitro): 49.5 µM

SMILES: OCCOCCN1CCN(C(c2ccccc2)c2ccc(Cl)cc2)CC1 (stereo not drawn) [Hydroxyzine]
- CC50 (GH3-TRE-Luc cell line; Tox21_110001=Tox21_302563): 16.6 µM
- CC50 at 24 h (in vitro): 18.1 µM

SMILES: Cc1ccc(/C=C2/C(=O)C3(C)CCC2C3(C)C)cc1 (stereo not drawn) [Enzacamene]
- CC50 (GH3-TRE-Luc cell line; Tox21_110001=Tox21_112423): 46.5 µM
- CC50 at 24 h (in vitro): > 90 µM

SMILES: O=C([O-])[C@H](O)[C@@H](O)[C@H](O)[C@H](O)CO.O=C([O-])[C@H](O)[C@@H](O)[C@H](O)[C@H](O)CO.[Ba+2] [D-Gluconic acid, barium salt]
- resp_max (maximum response value) ([1]; Table S2, aeid 803, per sample): 3.109 percent_activity
- hitc ([1]; Table S2, aeid 803, tcpl hit call): 0
- hitc_modified ([1]; Table S2, aeid 803, final hitc after manual review): 0
- AC50 ([1]; Table S2, aeid 803, inactive set to 1000, read-out: AC50 (uM) modified): > 50 µM

SMILES: O=C(Nc1cccc(C(F)(F)F)c1)c1cc(Br)cc(Br)c1O [Fluorosalan]
- CC50 (GH3-TRE-Luc cell line; Tox21_110001=Tox21_112749): 3.92 µM
- CC50 at 24 h (in vitro): 2.69 µM

SMILES: CN(C)CCC(c1ccc(Cl)cc1)c1ccccn1 (stereo not drawn) [Chlorpheniramine maleate]
- CC50 (GH3-TRE-Luc cell line; Tox21_110001=Tox21_303456): 41.3 µM
- CC50 at 24 h (in vitro): 40.4 µM

SMILES: Oc1ccc(Cl)cc1Cc1cc(Cl)ccc1O [Dichlorophen]
- CC50 (GH3-TRE-Luc cell line; Tox21_110001=Tox21_111112): 15.4 µM
- CC50 (GH3-TRE-Luc cell line; Tox21_110001=Tox21_303013): 27.4 µM
- CC50 at 24 h (in vitro): 16.7 µM
